According to US8946275B2, “Treatment of cancer using hypoxia activated prodrugs” (Threshold Pharmaceuticals, Inc., priority 2008, dated 2015):

Assays:
[1] = Phase 1 clinical trial of TH-302 monotherapy, dose escalation; assay type: in vivo, human
Description: A Phase 1 clinical trial was conducted with TH-302. The starting dose was 7.5 mg/m^2 IV over 30-60 min administered once weekly for 3 weeks of a 4 week cycle. A modified accelerated titration design was used.

[2] = system: HT1080 human fibrosarcoma cells; assay: HT1080 ectopic xenograft, TH-302/doxorubicin dosing schedules; assay type: in vivo, nude mice; details: single agent, TH-302 100 mg/kg ip 1/wkx2wks or Dox 4 mg/kg iv 1/wkx2wks
Description: (§1) Anti-tumor activity was evaluated by tumor growth delay (TGD) and tumor growth inhibition (TGI). Body weight change, gross and microscopic assessment of tissue changes, and hematologic assays served for toxicity assessment. Testing in these models was conducted generally as follows. 1×10^6 (H460 human non-small cell lung cancer or HT1080 human fibrosarcoma cells) or 3×10^6 (PC-3 human prostate cancer cells) were implanted in the subcutaneous space of the right flank to obtain ectopic xenograft models. Randomization and dosing was initiated when tumors reached a certain size (100-150 mm^3). API grade of TH-302 was used in all experiments while docetaxel, gemcitabine, cisplatin, pemetrexed, and doxorubicin were purchased from commercial sources.
(§2) The H460 cells were prepared in 30% Matrigel and 70%. RPMI1640. Mice were anesthetized by isoflurane and were implanted subcutaneously with 1×10^6 cells (in 200 μl) at the flank position. We selected 110 mice bearing similar size tumors (˜100 mm^3) for the study. Mice bearing similar tumor size were randomly assigned into different groups. Treatment started on day 1 (7 days after tumor implantation) except as noted. TH-302 was administered intraperitoneally (IP) at 150 mg/kg, and docetaxel was administered intravenously (IV) at 10 mg/kg. Animals were observed daily and tumor measurements and body weights recorded twice weekly.
In a study conducted substantially as described above except the cells implanted were HT1080 human fibrosarcoma cells and 1×10^6 cells were implanted and mice were randomized into separate groups when their […]

[3] = system: PC-3 human prostate cancer cells; assay: PC-3 ectopic xenograft, TH-302/docetaxel dosing schedules; assay type: in vivo, nude mice; details: single agent, TH-302 150 mg/kg ip once or Docetaxol 10 mg/kg iv once
[4] = system: orthotopic prostate cancer PC-3 cells; assay: Orthotopic PC-3 prostate cancer model, TH-302 with Taxol; assay type: in vivo, mice; details: single agents: Taxol 12 mg/kg; TH-302 30 or 50 mg/kg
Description: TH-302 was tested as monotherapy and in combination with Taxol (paclitaxel) in animals bearing highly invasive and metastatic orthotopic prostate cancer PC-3 cells. Animals were randomized into 6 groups of 8 mice each and then treated either with vehicle; Taxol (12 mg/kg, IV, twice a week for 4 consecutive weeks); TH-302 (30 or 50 mg/kg, IP, once a day for 5 days a week for 2 consecutive weeks); or Taxol in combination with TH-302 (using the same single agent regimens).

metastatic melanoma = assay: TH-302 monotherapy in patients with metastatic melanoma; assay type: in vivo, human
Description: As noted, TH-302 has shown benefit in patients with metastatic melanoma. The historical response rate in first-line metastatic melanoma is about 10%, so the results of treatment with TH-302 are quite remarkable. Eleven subjects with metastatic melanoma have been treated with TH-302 monotherapy at initial doses of 575 mg/m^2 to 670 mg/m^2 as part of a 3 consecutive week dosing regimen repeated every 4 weeks. RECIST tumor assessments have been performed for eight subjects. […] Four of the eight subjects continued on-study for additional dosing cycles. Two of the three subjects with a partial response continued on-study through at least Cycle 3 and Cycle 7. The other subject discontinued with clinical deterioration associated with neurological decline from brain metastases.
A patient suffering from a primary melanoma (a skin cancer) that had metastasized to liver and lung was treated as follows. TH-302 was administered to the patient at an amount of 670 mg/m^2 using a 4 week (28 day) dosing cycle: TH-302 was administered once every week for 3 weeks, on days 1, 8, and 15, followed by a week of no TH-302 administration. The patient was administered 2 cycles of TH-302 and assessed by a CT scan.
Enrollment in the study was expanded at the MTD in patients with metastatic melanoma. TH-302 was administered intravenously over 30-60 minutes on Days 1, 8 and 15 of a 28-day cycle. Eligible patients had ECOG≦1, at least one target lesion by RECIST, and acceptable hematologic, liver, and renal function. Patients with symptomatic brain metastases were excluded unless previously treated and well controlled for at least 3 months. Nine patients with metastatic melanoma have been treated in the study. The median age was 70 (range 23-78) with 5 females and 4 males and ECOG 0/1 in 4/5 patients. […] Metastatic sites included liver in 7 patients and lung in 6 patients. All patients had received at least one prior systemic chemotherapeutic regimen. Two serious adverse events, seizures and ascites, were reported; neither was considered related to study drug. Skin adverse events were reported in 8 patients and mucosal adverse events were reported in 4 patients including one grade 3 event. Myelosuppression was not significant, with one event of grade 3/4 neutropenia and anemia and no events of grade 3/4 thrombocytopenia. Eight patients have had RECIST tumor assessments.

[5] = system: H460 human non-small cell lung cancer; assay: H460 ectopic xenograft, TH-302/docetaxel dosing schedules; assay type: in vivo, nude mice; details: single agent, TH-302 100 mg/kg ip once or Docetaxol 10 mg/kg iv once
Description: as §1
as §2, with “TH-302 was administered intraperitoneally (IP) at 150 mg/kg, and docetaxel was administered intravenously (IV) at 10 mg/kg.” left out

[6] = 575-670 mg/m^2, weekly x3 every 4 weeks, eight subjects assessed
[7] = expansion at MTD, 8 patients assessed
[8] = one patient, 670 mg/m^2, 2 cycles, CT scan

Cn1c(COP(=O)(NCCBr)NCCBr)cnc1[N+](=O)[O-] [TH-302, (2-bromoethyl)({[(2-bromoethyl)amino][(2-nitro-3-methylimidazol-4-yl)methoxy]phosphoryl})amine]
Dose limiting toxicity (DLT) ([1]; 575 mg/m^2 weekly x3 of 4 week cycle): five of the six patients did not exhibit a DLT
Dose limiting toxicity (DLT) ([1]; 670 mg/m^2 weekly x3 of 4 week cycle): Two of five patients
Dose limiting toxicity ([1]; 940 mg/m^2 once every three weeks): two of six subjects have had a dose limiting toxicity
Patients with stable disease ([1]; Phase 1 monotherapy, all doses): 16 patients
Dose limiting toxicities ([1]; dose escalation study, monotherapy): mucositis with one grade 3 event involving the oral mucosa and one grade 3 event involving the gastrointestinal mucosa
Hematologic toxicity ([1]; monotherapy): mild and limited
Skin and mucosal toxicity ([1]; monotherapy): skin and mucosal toxicity was common at doses above 240 mg/m^2
MTD ([1]; once every three week dosing): 670 mg/m^2
MTD ([1]; once per week for three weeks of a four week cycle): 575 mg/m^2
Days to 500 mm^3 [2]: 22 days
T/C [2]: 25.3%
TGD500, Days (vs. vehicle) [2]: 10 days
TGI [2]: 74.7%
Tn (tumor volume on Day n) [2]: 334.66
Days to 500 mm^3 [3]: 25 days
T/C [3]: 48.7%
TGD500, Days (vs. vehicle) [3]: 9 days
TGI [3]: 51.3%
Tn (tumor volume on Day n) ([3]; in mm³): 559.95
Primary tumor growth during the treatment period [4]: significantly inhibited primary tumor growth
Partial responses (RECIST) (metastatic melanoma; [6]): Three of the eight subjects
Stable disease (RECIST) (metastatic melanoma; [6]): three of eight subjects
RECIST partial responses (metastatic melanoma; expansion at MTD, Days 1, 8, 15 of 28-day cycle, 8 patients assessed): 37%
Ongoing stable disease after 2 months of therapy (metastatic melanoma; [7]): 38%
Progressive disease (metastatic melanoma; [7]): 25%
Mucosal adverse events (metastatic melanoma; nine patients treated): 4 patients
Skin adverse events (metastatic melanoma; nine patients treated): 8 patients
Decrease in SLD of target lesions (metastatic melanoma; [8]): 53%
Reduction in area of cancer in lung and liver (metastatic melanoma; [8]): over 50%
Days to 500 mm^3 [5]: 21 days
Days to 1000 mm^3 [5]: 31 days
T/C [5]: 42.5%
TGD500, Days (vs. vehicle) [5]: 8 days
TGD1000, Days (vs. vehicle) [5]: 11 days
TGI [5]: 57.5%
Tn (tumor volume on Day n) ([5]; in mm³): 531.74
